Assay results as given in patent US20230027295A1, “FXIA INHIBITORS AND PREPARATION METHOD THEREFOR AND PHARMACEUTICAL USE THEREOF” (Shenzhen Salubris Pharmaceuticals Co., Ltd., priority 2019, published 2023).
pIC50: −log10 of the molar value.

Experiments:
[1] = target: T1, Human Factor Xa (Homo sapiens, UniProt P00742); assay: Selectivity to coagulation factors: hFXa (substrate S-2222); format: biochemical
T1 construct: hFXa: Human Factor Xa: 71nkat; purchased 71nkat
Experimental: Example 52: Investigation of the Selectivity of the Compounds of the Present Invention to Coagulation Factors
Enzyme: hFXa: Human Factor Xa: 71nkat. hFIIa: HT5146L. hFVIIa: Human Factor VIIa: hFVIIa 4591L. kallikrein: LOT180223.
hFXa buffer: 100 mM NaCl, 5 mM CaCl2, 33% ethylene glycol, 50 mM Tris (pH 7.5).
10 mM test compound dissolved in 100% DMSO was diluted with 100% DMSO to 1000, 200, 40, 8, 1.6 μM. 98 μL of enzyme solution was added to each well of a 96-well plate, while 98 μL of buffer was added to the blank wells. 2 μL of compounds of different concentrations were added, while the blank and control wells were added with DMSO instead. They were mixed with a shaker, and incubated at 37° C. for 20 min.
The concentrations of hFXa and S-2222™ were FXa (1:28) and 800 μmol/L, respectively. The concentrations of hFIIa and S-2238™ were hFIIa (0.06 U/ml) and 500 μmol/L, respectively. The concentrations of hFVIIa and S-2288™ were hFVIIa (80 nM) and 1600 μmol/L, respectively. The concentrations of kallikrein and substrate were kallikrein (20 nM) and 1600 μmol/L, respectively.
Finally, 100 μL substrate was added to each well, and its absorbance was measured at 405 nm.

[2] = target: Human Factor XIa (Homo sapiens, UniProt P03951); assay: Inhibition of human coagulation factor XIa by absorptiometry (substrate S-2366); format: biochemical; settings: 37° C., 20 min incubation, absorbance 405 nm; read-out: hFXIa IC50
Human Factor XIa, sequence (P03951 388-625 limits assumed): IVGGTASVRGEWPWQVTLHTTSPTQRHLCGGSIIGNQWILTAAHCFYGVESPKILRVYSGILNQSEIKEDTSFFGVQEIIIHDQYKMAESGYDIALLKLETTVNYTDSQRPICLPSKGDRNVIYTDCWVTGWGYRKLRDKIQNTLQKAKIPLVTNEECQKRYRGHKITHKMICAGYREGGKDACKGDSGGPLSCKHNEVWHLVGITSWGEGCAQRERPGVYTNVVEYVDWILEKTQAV
Human Factor XIa, sequence (P03951 19-387 partner limits assumed): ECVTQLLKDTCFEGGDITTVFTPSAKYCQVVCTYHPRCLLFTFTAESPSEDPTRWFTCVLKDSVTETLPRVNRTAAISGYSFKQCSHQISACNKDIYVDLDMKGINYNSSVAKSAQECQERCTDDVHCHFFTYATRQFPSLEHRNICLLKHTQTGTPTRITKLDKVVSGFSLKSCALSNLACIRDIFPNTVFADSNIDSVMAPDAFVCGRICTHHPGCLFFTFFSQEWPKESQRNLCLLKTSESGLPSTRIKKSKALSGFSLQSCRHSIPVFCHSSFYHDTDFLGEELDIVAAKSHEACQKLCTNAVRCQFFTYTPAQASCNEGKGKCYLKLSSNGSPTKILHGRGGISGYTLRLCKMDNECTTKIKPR

[3] = target: T2, CYP1A2 (Homo sapiens, UniProt P05177); assay: CYP enzyme inhibition in liver microsomes: CYP1A2; format: in vitro ADME; settings: 0.2 mg/mL liver microsomes
T2 construct: Liver microsomes (150-donor, Corning, Cat. 452117; Lot; 38292), NADPH; tissue Corning 452117; host or cells: liver microsomes, 150-donor pool
T2 sequence (P05177 1-516): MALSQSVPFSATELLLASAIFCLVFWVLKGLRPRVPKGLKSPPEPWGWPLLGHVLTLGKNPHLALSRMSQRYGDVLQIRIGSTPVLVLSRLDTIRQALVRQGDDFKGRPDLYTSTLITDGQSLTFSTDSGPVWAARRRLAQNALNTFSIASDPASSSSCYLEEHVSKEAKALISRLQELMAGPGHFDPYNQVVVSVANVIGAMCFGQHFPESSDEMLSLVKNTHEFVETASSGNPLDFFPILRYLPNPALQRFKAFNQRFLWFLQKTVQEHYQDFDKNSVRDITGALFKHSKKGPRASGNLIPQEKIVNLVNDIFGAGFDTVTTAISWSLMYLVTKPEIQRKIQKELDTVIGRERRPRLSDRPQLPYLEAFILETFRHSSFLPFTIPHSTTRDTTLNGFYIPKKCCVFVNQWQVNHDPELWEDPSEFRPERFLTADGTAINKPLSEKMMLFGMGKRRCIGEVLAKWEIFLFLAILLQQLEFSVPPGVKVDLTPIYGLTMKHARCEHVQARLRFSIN
Experimental: (§1) Example 55: Investigation of CYP Enzyme Inhibition by the Compounds of the Present Invention Liver microsomes (150-donor, Corning, Cat. 452117; Lot. 38292), NADPH. A 0.2 mg/mL microsome system was prepared, each test substance and substrate were added, and the final concentration of the test substance was 50 μM. After pre-incubating for 8 min, 10 mM NADPH was added to start the reaction, and the final concentration of NADPH was 1 mM. After a period of incubation, an internal standard such as methanol was added to stop the reaction. The amount of substrate metabolites generated in each reaction well was detected. Data processing: Taking the metabolite generation in the blank well as 100%, the reduction of metabolite generation in each well of the test substance was calculated, and the inhibition rate was calculated.

[4] = target: T3, CYP3A5 (Homo sapiens, UniProt P20815); assay: CYP enzyme inhibition in liver microsomes: CYP3A5; format: in vitro ADME; settings: 0.2 mg/mL liver microsomes
T3 construct: Liver microsomes (150-donor, Corning, Cat. 452117; Lot; 38292), NADPH; tissue Corning 452117; host or cells: liver microsomes, 150-donor pool
T3 sequence (P20815 whole entry): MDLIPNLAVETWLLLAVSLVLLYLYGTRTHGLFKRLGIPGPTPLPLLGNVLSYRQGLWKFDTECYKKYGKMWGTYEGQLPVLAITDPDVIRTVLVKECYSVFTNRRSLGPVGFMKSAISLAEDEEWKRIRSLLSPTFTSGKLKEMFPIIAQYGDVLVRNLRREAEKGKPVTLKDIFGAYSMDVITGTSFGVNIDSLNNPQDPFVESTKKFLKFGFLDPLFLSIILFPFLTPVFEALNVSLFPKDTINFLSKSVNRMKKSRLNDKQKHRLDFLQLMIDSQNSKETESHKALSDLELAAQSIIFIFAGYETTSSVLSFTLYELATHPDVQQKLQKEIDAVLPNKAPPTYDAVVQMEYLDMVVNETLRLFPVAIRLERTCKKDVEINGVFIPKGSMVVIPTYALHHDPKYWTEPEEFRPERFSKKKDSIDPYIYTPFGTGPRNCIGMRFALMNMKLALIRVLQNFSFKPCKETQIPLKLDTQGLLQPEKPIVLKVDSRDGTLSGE
Experimental: as §1

[5] = target: T4, CYP2C9 (Homo sapiens, UniProt P11712); assay: CYP enzyme inhibition in liver microsomes: CYP2C9; format: in vitro ADME; settings: 0.2 mg/mL liver microsomes
T4 construct: Liver microsomes (150-donor, Corning, Cat. 452117; Lot; 38292), NADPH; tissue Corning 452117; host or cells: liver microsomes, 150-donor pool
T4 sequence (P11712 whole entry): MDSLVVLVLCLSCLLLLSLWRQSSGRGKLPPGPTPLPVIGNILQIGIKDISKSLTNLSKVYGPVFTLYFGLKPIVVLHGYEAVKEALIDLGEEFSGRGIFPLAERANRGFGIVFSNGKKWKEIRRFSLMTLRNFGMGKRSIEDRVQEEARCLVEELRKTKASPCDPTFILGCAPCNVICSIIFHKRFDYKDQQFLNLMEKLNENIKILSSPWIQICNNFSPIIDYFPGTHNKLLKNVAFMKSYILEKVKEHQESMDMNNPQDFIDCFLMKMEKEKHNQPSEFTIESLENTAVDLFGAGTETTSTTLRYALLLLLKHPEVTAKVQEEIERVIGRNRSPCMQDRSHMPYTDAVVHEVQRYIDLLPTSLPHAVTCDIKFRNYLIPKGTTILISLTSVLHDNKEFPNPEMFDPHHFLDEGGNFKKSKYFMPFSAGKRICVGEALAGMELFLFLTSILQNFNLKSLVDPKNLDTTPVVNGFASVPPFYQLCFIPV
Experimental: Example 55: Investigation of CYP Enzyme Inhibition by the Compounds of the Present Invention Liver microsomes (150-donor, Corning, Cat. 452117; Lot. 38292), NADPH. […] After pre-incubating for 8 min, 10 mM NADPH was added to start the reaction, and the final concentration of NADPH was 1 mM. After a period of incubation, an internal standard such as methanol was added to stop the reaction. The amount of substrate metabolites generated in each reaction well was detected. […]

[6] = target: T5, CYP2C19 (Homo sapiens, UniProt P33261); assay: CYP enzyme inhibition in liver microsomes: CYP2C19; format: in vitro ADME; settings: 0.2 mg/mL liver microsomes
T5 construct: Liver microsomes (150-donor, Corning, Cat. 452117; Lot; 38292), NADPH; tissue Corning 452117; host or cells: liver microsomes, 150-donor pool
T5 sequence (P33261 whole entry): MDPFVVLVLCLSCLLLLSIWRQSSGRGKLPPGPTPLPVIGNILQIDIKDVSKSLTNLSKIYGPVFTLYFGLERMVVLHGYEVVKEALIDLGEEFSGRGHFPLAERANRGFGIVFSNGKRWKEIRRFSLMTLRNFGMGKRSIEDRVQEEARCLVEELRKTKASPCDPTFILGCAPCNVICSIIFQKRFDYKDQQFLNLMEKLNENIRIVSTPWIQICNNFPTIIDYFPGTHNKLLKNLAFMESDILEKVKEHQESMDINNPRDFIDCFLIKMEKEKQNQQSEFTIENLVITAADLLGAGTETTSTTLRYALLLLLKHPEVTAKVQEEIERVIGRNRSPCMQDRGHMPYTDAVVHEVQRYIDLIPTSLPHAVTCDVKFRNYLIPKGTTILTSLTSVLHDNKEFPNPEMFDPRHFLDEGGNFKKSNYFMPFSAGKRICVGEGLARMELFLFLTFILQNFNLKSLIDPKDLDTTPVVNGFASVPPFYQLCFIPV
Experimental: as §1

T1 sequence (P00742 235-488 limits assumed): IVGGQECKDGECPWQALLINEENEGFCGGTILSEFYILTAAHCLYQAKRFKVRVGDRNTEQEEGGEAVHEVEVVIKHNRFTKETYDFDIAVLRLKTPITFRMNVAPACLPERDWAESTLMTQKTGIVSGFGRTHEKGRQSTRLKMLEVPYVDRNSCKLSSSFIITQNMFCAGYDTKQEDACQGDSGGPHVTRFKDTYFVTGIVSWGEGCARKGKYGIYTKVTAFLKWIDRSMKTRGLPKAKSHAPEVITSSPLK
T1 sequence (P00742 41-179 partner limits assumed): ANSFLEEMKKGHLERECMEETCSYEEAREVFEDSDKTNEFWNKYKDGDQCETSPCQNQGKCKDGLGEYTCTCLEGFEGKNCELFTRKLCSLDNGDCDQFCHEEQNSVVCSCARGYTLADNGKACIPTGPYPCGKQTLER

Row | pIC50 [1] | pIC50 [2] | pIC50 [3] | pIC50 [4] | pIC50 [5] | pIC50 [6] | Compound
1 | < 4.00 | 8.78 | < 4.30 | < 4.30 | ~4.30 | < 4.30 | CCC(=O)c1ccc(Cl)cc1-c1cc(=O)n([C@@H](Cc2ccccc2)C(=O)Nc2ccc(C(=O)O)cc2)nc1OC [Example 32]
2 | < 4.00 | 8.12 | < 4.30 | < 4.30 | < 4.30 | < 4.30 | COc1nn([C@@H](Cc2ccccc2)C(=O)Nc2ccc(C(=O)O)cc2)c(=O)cc1-c1cc(Cl)ccc1C(C)=O [Example 19, (S)-4-(2-(4-(2-acetyl-5-chlorophenyl)-3-methoxy-6-oxopyridazin-1(6H)-yl)-3-phenylpropanamido)benzoic acid]
